Measured values from patent publication US4172148A, “Ruminant feeds containing trichloroethyl esters of essential amino acids” (E. R. Squibb & Sons, Inc., priority 1978, dated 1979).

What was measured:
[1] = system: volatile fatty acid concentrations in the in vitro rumen fermentation; test: in vitro rumen fermentation, volatile fatty acids, alfalfa hay:concentrate 3:1 (Examples 3 and 12); design: species or system sheep; conditions: 0.2 mg/ml; 6 h, 39° C.
Description: (§1) A one gram sample of substrate ground through a 1 mm screen is weighed into 100 ml. lipless beakers equipped with gas-release valves. The substrate consists of alfalfa hay containing approximately 16% protein and a concentrate containing ground corn 60.7%, alfalfa meal 17.5%, molasses 10.0%, soybean meal 5.3%, wheat bran 5.0%, trace mineralized salt 1.0%, limestone 0.5% and Vitamin D 300,000 I.U./ton, mixed in the proportion 3:1. The experimental composition is added to the substrate. 25 ml. of filtered rumen fluid obtained from fasted sheep maintained on feed the same as the above mentioned substrate and 25 ml. of McDougal's buffer solution serve as the inoculum. The buffer solution is as follows:
(§2) The fermentation mixture is flushed with carbon dioxide and the vessel is capped with a gas release valve. The fermentation vessel (beaker) is placed in a water bath and incubated at 39° C.±1° for six hours. The sample is mixed every hour by shaking the beaker.
(§3) At the end of the 6-hour fermentation period the sample is strained through 4 layers of cheesecloth into a sample bottle containing 1 ml. saturated solution of mercuric chloride. The sample is frozen immediately until analyzed for the volatile fatty acids (VFA) (mg/100 ml.). Prior to analysis, each sample is acidified with 30% phosphoric acid and then analyzed by gas chromatography using a column containing 5% nonylphenoxypolyoxyethylene ethanol plus 0.5% phosphoric acid on 100-120 mesh Gas Chrom S. The acids determined are acetic, propionic, butyric, isobutyric, valeric and isovaleric acids. Total VFA is considered as the addition of these acids. The ratio of acetic: propionic (A:P) is obtained by dividing the concentration of acetic acid by that of propionic acid.
The effect of various compounds alone on the volatile fatty acid concentrations was determined by the procedure of Example 3. […] A direct comparison between phenylalanine and phenylalanine trichloroethyl ester is provided.

[2] = system: volatile fatty acid concentrations in fistulated sheep; test: volatile fatty acid concentrations in vivo in fistulated sheep, 227 g concentrate and 680 g alfalfa hay (Examples 5 and 8)
Text: Mature sheep (wethers) fitted with permanent rumen fistulae were used to determine the effect of L-phenylalanine, 2,2,2-trichloroethyl ester on volatile fatty acid concentrations in vivo (3 wethers per treatment). The animals were individually penned and fed 227 g. of concentrate (described in Example 3) and 680 g. of alfalfa hay once daily. The test compound was admixed with the concentrate. The sheep were medicated for 7 days. Samples for analysis were obtained before (Day 0) and after treatment (Day 7) approximately 6 hours after feeding.

[3] = system: volatile fatty acid concentrations in the in vitro rumen fermentation; test: in vitro rumen fermentation, volatile fatty acids, high concentrate substrate, alfalfa hay:concentrate 1:3 (Examples 4 and 7); design: species or system sheep; conditions: for Acetic acid / Acetic:propionic / Butyric acid / Propionic acid / Total acids: hay:concentrate 1:3
Description: as §1, §2, §3
The procedure is described in Example 3. In this example, however, the substrate consisted of alfalfa hay and concentrate in the ratio of 1:3 and inoculum was obtained from sheep fed alfalfa and concentrate in the ratio of 1:3. The concentrate (Fit-N-Fresh) is commercially available from Agway, Inc. and contains grain products, plant protein products, processed grain by-products, cane molasses, minerals, vitamins and a preservative.
The 2,2,2-trichloroethyl ester of glycine was tested in vitro in a manner similar to that described in Example 4.

growing lambs = test: body weight gain and feed efficiency of growing lambs (Examples 9-11); format: in vivo, lambs (sheep); conditions: 0.0044% (40 g/ton) in feed
Description: A test was conducted to determine if feeding L-phenylalanine, 2,2,2-trichloroethyl ester to growing lambs was effective in improving growth and feed efficiency. Wether and ewe lambs were divided into groups of 30 lambs each. They were acclimated to their pens for 2 weeks prior to treatment.
The feed supplied to the animals had the following composition
The test compound in an amount of 0.0055% (50 g/ton) was admixed with the above feed composition.
Body weights and feed consumption were recorded at 0, 2, 4 and 6 weeks. Feed efficiencies were calculated.
The test procedure of Example 9 was followed to test the growth effect and feed efficiency of glycine 2,2,2-trichloroethyl ester on growing lambs. The feed composition of Example 9 was used but contained glycine 2,2,2-trichloroethyl ester in an amount of 0.0044% (40 g/ton). There were 44 lambs in the control group receiving the feed composition without additive and 42 lambs receiving the feed composition containing the amino acid ester.
The test procedure of Example 9 was followed to test the growth effect and feed efficiency of L-phenylalanine 2,2,2-trichloroethyl ester on growing lambs. The feed composition of Example 9 was used but contained 0.0088% (80 g/ton) of this amino acid ester. There were 59 lambs in the control group fed the feed without additive and 58 lambs in the group fed the feed composition containing the test compound.

Question: What does the source list for `N[C@@H](Cc1ccccc1)C(=O)O` [L-phenylalanine, reference compound]?
Answer: Acetic acid [1]: 95 % of control; Acetic:propionic [1]: 100 % of control; Butyric acid [1]: 97 % of control; Propionic acid [1]: 94 % of control; Total acids [1]: 96 % of control

Question: With `Br.NCC(=O)OCC(Cl)(Cl)Cl` [2,2,2-trichloroethyl ester of glycine, aminoacetic acid 2,2,2-trichloroethyl ester, hydrobromide] as the molecule, how does the “Acetic:propionic ratio” value ([2]; Example 8, 500 mg/head/day, treatment, pre-treatment 3.36, control treatment 3.38) read?
Answer: 2.86

Question: And the “Other acids (%)” value ([2]; Example 8, 500 mg/head/day, treatment, pre-treatment 6.1, control treatment 4.2)?
Answer: 6.6%

Question: What about the “Butyric acid (%)” value ([2]; Example 8, 500 mg/head/day, treatment, pre-treatment 15.1, control treatment 14.6) of the same molecule?
Answer: 17.9%

Question: And the “Propionic acid (%)” value ([2]; Example 8, 500 mg/head/day, treatment, pre-treatment 18.1, control treatment 18.6)?
Answer: 19.6%

Question: And the “Acetic acid (%)” value ([2]; Example 8, 500 mg/head/day, treatment, pre-treatment 60.8, control treatment 62.7)?
Answer: 56.0%

Question: What about the Total acid ([2]; Example 8, 500 mg/head/day, treatment, pre-treatment 715, control treatment 678) of the same molecule?
Answer: 731 mg/100 ml

Question: And the “effect on acetic:propionic ratio (in words)” value ([2]; fistulated sheep, 7 days)?
Answer: decreasing the acetic:propionic ratio

Question: What about the “effect on proportion of propionic acid (in words)” value ([2]; fistulated sheep, 7 days) of the same molecule?
Answer: effective in increasing the proportion of propionic acid

Question: And the Acetic acid ([3]; 0.2 mg/ml)?
Answer: 79 % of control

Question: And the “Acetic:propionic” value ([3]; 0.2 mg/ml)?
Answer: 64 % of control

Question: And the Butyric acid ([3]; 0.2 mg/ml)?
Answer: 119 % of control

Question: What about the Propionic acid ([3]; 0.2 mg/ml) of the same molecule?
Answer: 123 % of control

Question: And the Total acids ([3]; 0.2 mg/ml)?
Answer: 98 % of control

Question: And the Acetic acid ([3]; 0.4 mg/ml)?
Answer: 79 % of control

Question: What about the “Acetic:propionic” value ([3]; 0.4 mg/ml) of the same molecule?
Answer: 64 % of control

Question: And the Butyric acid ([3]; 0.4 mg/ml)?
Answer: 119 % of control

Question: What about the Propionic acid ([3]; 0.4 mg/ml) of the same molecule?
Answer: 123 % of control

Question: And the Total acids ([3]; 0.4 mg/ml)?
Answer: 98 % of control

Question: And the “effect on acetic:propionic ratio (in words)” value ([3]; high concentrate substrate)?
Answer: decreasing the acetic:propionic ratio

Question: What about the “effect on propionic acid concentration (in words)” value ([3]; high concentrate substrate) of the same molecule?
Answer: effective in increasing propionic acid concentration

Question: And the Weight gain (growing lambs; 0-2 wks, control 2.32)?
Answer: 2.31 kg

Question: What about the Weight gain (growing lambs; 0-4 wks, control 5.09) of the same molecule?
Answer: 5.13 kg

Question: What about the Feed efficiency (growing lambs; 0-6 wks, control 0.148) of the same molecule?
Answer: 0.154 gain/feed

Question: What about the Weight gain (growing lambs; 0-6 wks, control 7.18) of the same molecule?
Answer: 7.37 kg

Question: What does the source list for `O=CC(Cl)(Cl)Cl` [choral, reference compound]?
Answer: Acetic acid [1]: 88 % of control; Acetic:propionic [1]: 80 % of control; Butyric acid [1]: 110 % of control; Propionic acid [1]: 110 % of control; Total acids [1]: 96 % of control

Question: `N[C@@H](Cc1ccc(Cl)cc1)C(=O)O` (racemic) [p-chlorophenylalanine, reference compound] was tested. Which Acetic acid [1] did it give?
Answer: 91 % of control

Question: And the “Acetic:propionic” value [1]?
Answer: 101 % of control

Question: What about the Butyric acid [1] of the same molecule?
Answer: 92 % of control

Question: What about the Propionic acid [1] of the same molecule?
Answer: 91 % of control

Question: What about the Total acids [1] of the same molecule?
Answer: 91 % of control
